# Measurements from US9737517B2, “Pharmaceutical use of hexahydro-dibenzo[a,g]quinolizine compounds” (SHANGHAI INSTITUTE OF MATERIA MEDICA, CHINESE ACADEMY OF …, priority 2013, dated 2017).
# Columns and labels:
# α1D-AR = target: T1, α1D-AR (Homo sapiens, UniProt P25100); experiment: Calcium mobilization (Fluo-4) antagonism of phenylephrine in HEK293 cells expressing α1D-AR/Gα16; assay type: cell-based; conditions: phenylephrine 30 nM
# T1 construct: expressed in transfected cells; host or cells: HEK293
# T1 sequence (P25100 1-572): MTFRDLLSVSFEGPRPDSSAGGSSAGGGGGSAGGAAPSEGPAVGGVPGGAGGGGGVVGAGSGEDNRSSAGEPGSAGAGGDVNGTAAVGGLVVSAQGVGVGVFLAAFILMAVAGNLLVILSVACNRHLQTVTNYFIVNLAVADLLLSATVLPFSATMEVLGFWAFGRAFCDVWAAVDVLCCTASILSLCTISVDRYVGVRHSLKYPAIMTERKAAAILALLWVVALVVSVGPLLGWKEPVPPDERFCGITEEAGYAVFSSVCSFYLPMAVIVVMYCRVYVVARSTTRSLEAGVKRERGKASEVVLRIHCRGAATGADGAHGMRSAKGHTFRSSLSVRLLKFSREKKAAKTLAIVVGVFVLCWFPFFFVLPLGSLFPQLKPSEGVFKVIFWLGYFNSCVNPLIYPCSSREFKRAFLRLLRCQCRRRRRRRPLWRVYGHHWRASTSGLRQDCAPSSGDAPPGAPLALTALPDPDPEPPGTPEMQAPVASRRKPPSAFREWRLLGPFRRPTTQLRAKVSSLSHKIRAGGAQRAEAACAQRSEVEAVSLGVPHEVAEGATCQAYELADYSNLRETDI
# Experimental: (§1) HEK293 cells stably expressing α1A-AR/Gα16, α1B-AR/Gα16, α1D-AR/Gα16 were seeded in a 96-well plate, and cultured for 24 hours. Then the medium was removed and 40 μL Hank's balanced salt solution (HBSS: containing 5.4 mM KCl, 0.3 mM Na2HPO4, 0.4 mM KH2PO4, 4.2 mM NaHCO3, 1.3 mM CaCl2, 0.5 mM MgCl2, 0.6 mM MgSO4, 137 mM NaCl, 5.6 mM D-glucose, and 250 μM sulfinpyrazone, pH 7.4) containing 2 μM Fluo-4 AM was added into each well, and incubated at 37° C. for 45 min. Dye was removed and 50 μL of HBSS containing either test compound or 1% DMSO (negative control) was added. After incubation at room temperature for 10 min, Flex Station 3 microplate reader was used to read the value. At specified time points, 25 μL of agonist (phenylephrine, final concentration 30 nM) was dispensed into the well automatically using the reader and fluorescence intensity change of dye caused by intracellular calcium concentration change was detected at an excitation wavelength of 485 nm and an emission wavelength of 525 nm.
# (§2) After incubation with different drugs, the reaction rate of cells to 1-AR agonist phenylephrine was calculated as follows: Reaction rate %=(D−B)/(S−B)*100%;
# (§3) The reaction rate of the same drug at different doses was tested using GraphPad Prism software by non-linear regression analysis, and the dose-response curve was obtained and IC50 values was measured. Data were obtained from three separate experiments, and each experiment included three duplicate wells.
# α1A-AR [1] = target: T2, α1A-AR (Homo sapiens, UniProt P35348); experiment: Calcium mobilization (Fluo-4) antagonism of phenylephrine in HEK293 cells expressing α1A-AR/Gα16; assay type: cell-based; conditions: for IC50: HEK293 α1A-AR/Gα16, calcium mobilization, phenylephrine 30 nM; for α1B/α1A: ratio of cell IC50 values, calcium mobilization
# T2 construct: expressed in transfected cells; host or cells: HEK293
# T2 sequence (P35348 1-466): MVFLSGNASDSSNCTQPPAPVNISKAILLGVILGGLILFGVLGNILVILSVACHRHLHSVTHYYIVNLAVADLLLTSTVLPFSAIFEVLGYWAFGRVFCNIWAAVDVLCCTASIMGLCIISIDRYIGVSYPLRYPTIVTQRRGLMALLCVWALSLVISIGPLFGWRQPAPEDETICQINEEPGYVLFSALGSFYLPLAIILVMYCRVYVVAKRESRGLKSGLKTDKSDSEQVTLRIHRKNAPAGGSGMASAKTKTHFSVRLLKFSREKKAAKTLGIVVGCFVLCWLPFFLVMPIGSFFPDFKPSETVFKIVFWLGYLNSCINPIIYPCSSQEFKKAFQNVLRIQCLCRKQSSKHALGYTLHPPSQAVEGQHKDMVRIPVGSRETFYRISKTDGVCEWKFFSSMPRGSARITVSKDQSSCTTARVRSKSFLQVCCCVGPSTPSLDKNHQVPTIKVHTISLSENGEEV
# Experimental: as §1, §2, §3
# α1B-AR [2] = target: T3, α1B-AR (Homo sapiens, UniProt P35368); experiment: Calcium mobilization (Fluo-4) antagonism of phenylephrine in HEK293 cells expressing α1B-AR/Gα16; assay type: cell-based; conditions: phenylephrine 30 nM
# T3 construct: expressed in transfected cells; host or cells: HEK293
# T3 sequence (P35368 1-520): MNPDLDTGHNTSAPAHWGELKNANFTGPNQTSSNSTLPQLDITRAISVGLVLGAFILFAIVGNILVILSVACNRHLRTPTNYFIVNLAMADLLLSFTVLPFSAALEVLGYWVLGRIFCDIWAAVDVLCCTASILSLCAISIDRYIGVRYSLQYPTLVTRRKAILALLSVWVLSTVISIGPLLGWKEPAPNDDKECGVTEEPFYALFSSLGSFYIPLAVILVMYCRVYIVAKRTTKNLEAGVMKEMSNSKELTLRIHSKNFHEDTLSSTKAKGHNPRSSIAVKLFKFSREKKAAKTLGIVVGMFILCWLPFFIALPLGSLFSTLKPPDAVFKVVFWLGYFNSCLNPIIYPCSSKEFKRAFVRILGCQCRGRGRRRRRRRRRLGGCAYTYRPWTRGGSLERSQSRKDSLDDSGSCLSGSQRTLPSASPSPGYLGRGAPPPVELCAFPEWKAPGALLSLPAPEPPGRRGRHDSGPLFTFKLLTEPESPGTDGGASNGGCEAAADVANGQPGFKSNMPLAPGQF
# Experimental: as §1, §2, §3
# α1A-AR [3] = target: T2, α1A-AR; experiment: Tag-lite receptor binding assay, HEK293 cells expressing SNAP-α1A-AR
# Excerpt: (§4) Tag-lite assay was used to study receptor binding activity. Tag-lite assay was a combination of SNAP-Tag and HTRF technology, and was used to analyze surface receptors on live cell. SNAPs were small tag fusion proteins which could irreversibly, specifically and covalently bind to substrates via benzylmethyl, and the substrates were benzylmethyl guanine and benzylmethyl cytosine. Substrates and various dyes formed derivatives, and through covalent reaction, the dye was labeled onto SANPs. Plasmid was constructed using pSNAP and α1-AR encoding gene. After transfection into cells, N-terminal fusion protein of SNAP and α1-AR was expressed. The substrate and HTRF fluorescent dye (donor compound Lumi4-Tb) formed a derivative which reacted with SANP-α1-AR fusion protein so that Tb was labeled onto α1-AR. After adding acceptor fluorescent dye-labeled ligand, the receptor and ligand binding experiment was performed.
# (§5) HEK293 cells stably expressing SNAP-α1A-AR, SNAP-α1B-AR, SNAP-α1D-AR were seeded in 3 cm dishes, and cultured for 24 hours. 100 nM Tag-lite SNAP Lumi4Tb was added and incubated for 1 h in an incubator. Cells were detached and washed with a labeling buffer for 4 times, and then was added into a 384-well plate in a volume of 10 μL per well. […] After incubation at room temperature for 1 hour, fluorescence intensity changes caused by cell receptor and ligand changes were detected using 665 nm (acceptor) and 620 nm (donor) at same time.
# (§6) After incubation with different drugs, the reaction rate of cells to 1-AR fluorescein-labeled known ligand was calculated as follows: Reaction rate %=(D−B)/(S−B)*100%
# as §3, with “Ki” for “IC50”, “includes” for “included”
# [4] = tested on: vascular smooth muscle (thoracic aorta); experiment: In vitro vascular smooth muscle experiment (norepinephrine-induced contraction of thoracic aorta rings); parameters: species or system Wistar rats; conditions: isolated rat thoracic aorta rings, norepinephrine 10^−7 mol/L
# Experimental: Healthy male Wistar rats were hit head to cause faint. The abdominal cavity was quickly cut, and the thoracic aorta was taken out. The attached tissue was separated and cut into 2-3 mm vascular rings. The experiment was carried out in the same manner as in urethral smooth muscle experiment. The resting tension applied was 1 g, and when baseline was stabilized, norepinephrine was added with a final concentration of 10^−7 mol/L in bath tube. When the contraction curve reached the highest point, rinse was performed immediately to recover to baseline levels. When baseline was stabilized, test drug with different concentrations was added respectively, and incubated 3-5 mins. 20 μL 1×10^−4 M norepinephrine was added with a final concentration of 10^−7 mol/L in bath tube, and contraction curve was recorded.
# α1B-AR [5] = target: T3, α1B-AR; experiment: Tag-lite receptor binding assay, HEK293 cells expressing SNAP-α1B-AR
# Excerpt: as §4, §5, §6
# as §3, with “Ki” for “IC50”, “includes” for “included”
# urethra smooth muscle = experiment: In vitro urethra smooth muscle experiment (norepinephrine-induced contraction); parameters: species or system Wistar rats; Urethra inhibition rate (%): concentration or dose not given beside the values; conditions: for IC50: isolated rat prostatic urethra, norepinephrine 3×10^−4 mol/L; for Urethra inhibition rate (%): isolated rat urethra, norepinephrine-induced contraction; for Aorta/Urethra: selectivity ratio of IC50 values, isolated rat tissues
# Experimental: Healthy male Wistar rats were hit head to cause faint. The abdominal cavity and the pubic symphysis was quickly cut so as to quickly remove the prostatic urethra, which was immediately placed into a dish filled with 4° C. Kerbs-Henseleit solution (K-H solution). The surrounding tissue were carefully separated, and muscle strips about 3-5 mm were obtained, and the lower end was fixed onto a 20 mL of thermostatic bath and the upper end was connected onto a pressure transducer. Nutrient liquid was K-H solution, and carbogen (95% oxygen and 5% carbon dioxide) was aerated, and the bath temperature was 37° C., and resting tension applied was 0.5 g. The nutrient liquid was replaced every 6-8 mins. Until baseline stabilized, norepinephrine was added with a final concentration of 3×10^−4 mol/L in bath tube. When the contraction curve reached the highest point, it was rinsed immediately to recover to baseline levels. When baseline was stabilized, test drug with different concentrations was added respectively, and incubated 3-5 mins. 60 μL 1×10^−1 M norepinephrine was added with a final concentration of 3×10^−4 mol/L in bath tube, and the contraction curve was recorded.
SMILES,IC50 (α1D-AR) [nM],IC50 (α1A-AR [1]) [nM],α1B/α1A (α1A-AR [1]),IC50 (α1B-AR [2]) [nM],"IC50 (α1A-AR [3]; Tag-lite binding, HEK293 SNAP-α1A-AR) [nM]",α1B/α1A (α1A-AR [3]; ratio of Tag-lite binding values),IC50 [4] [nM],IC50 (α1B-AR [5]) [nM],IC50 (urethra smooth muscle) [nM],Urethra inhibition rate (%) (urethra smooth muscle),Aorta/Urethra (urethra smooth muscle)
COc1cc2c(cc1OC)CN1CCc3cc(OC)c(OC)cc3C1C2 (centres unmarked) [DC037001],8710,123,1.4,174,–,–,–,–,–,–,–
COc1cc2c(cc1OC)[C@@H](C)N1CCc3cc(OC)c(OC)cc3[C@@H]1C2 [DC037002],2520,502,34.2,17200,–,–,–,–,–,–,–
COc1cc2c(cc1OC)CN1CCc3cc(OC)c(OC)cc3[C@@H]1C2 [DC037003],2480,91.3,2731,249000,–,–,–,–,–,–,–
COc1ccc2c(c1)CCN1Cc3cc(OC)c(OC)cc3C[C@@H]21 [DC037004],422,93.9,2.0,189,–,–,–,–,–,–,–
COc1cc2c(cc1OC)[C@@H]1Cc3cc4c(cc3CN1CC2)OCO4 [DC037005],2950,160,10.3,1650,–,–,–,–,–,–,–
COc1ccc(OC)c2c1C[C@H]1c3cc4c(cc3CCN1C2)OCO4 [DC037007],75.8,969,13.4,13000,–,–,–,–,–,–,–
COc1cc2c(cc1OC)C1Cc3cc4c(cc3CN1CC2)OCO4 (centres unmarked) [DC037008],2120,552,125,68800,–,–,–,–,–,–,–
COc1cc2c(c(OC)c1OC)CN1CCc3cc4c(cc3[C@@H]1C2)OCO4 [DC037010],2560,238,5.0,1200,–,–,–,–,–,–,–
COc1cc2c(cc1OC)[C@@H]1Cc3cc(C)cc(C)c3CN1CC2 [DC037011],2640,532,64.4,34300,–,–,–,–,–,–,–
COc1cc2c(cc1OC)CN1CCc3cc4c(cc3C1C2)OCO4 (centres unmarked) [DC037012],242,257,29.2,7520,–,–,–,–,–,–,–
COc1cc2c(cc1O)[C@@H]1Cc3cc4c(cc3CN1CC2)OCO4 [DC037013],263,268,16.1,4310,–,–,–,–,–,–,–
COc1cc2c(cc1OCc1ccccc1)CN1CCc3cc4c(cc3[C@@H]1C2)OCO4 [DC037014],1340,303,118.5,35900,–,–,–,–,–,–,–
COc1cc2c(cc1OCC(F)F)C[C@H]1c3cc4c(cc3CCN1C2)OCO4 [DC037018],–,–,–,–,0.95,51.2,2210,48.6,147,61,61
"CCOc1ccccc1OCCN[C@H](C)Cc1ccc(OC)c(S(N)(=O)=O)c1 [Tamsulosin, reference compound]",0.18,–,–,3.08,–,–,0.25,0.16,0.47,82,0.53
